From patent US7795290B2 (Genentech, Inc., priority 2004, dated 2010)

Each compound was assayed against T1, AKT1 (Homo sapiens, UniProt P31749) (assay: HTS ATP-utilizing enzyme assay, off-chip mobility-shift (Caliper HTS 250)). Conditions: kinase named = inhibitory activity/selectivity; test compound 10 μM; active = greater than three-sigma from mean.
T1 construct: purchased Upstate 14-276
Type: biochemical
Procedure, shortened: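 AKT1 activity was measured by off-chip mobility shift (Caliper HTS 250) as the ratio of peptide substrate to phosphorylated product. Test compound was at 10 μM, with 2.5 h incubation at 20–22° C. EDTA wells served as 100% control and DMSO wells as 0%. Hits were called at three-sigma limits.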

T1 sequence (P31749 whole entry): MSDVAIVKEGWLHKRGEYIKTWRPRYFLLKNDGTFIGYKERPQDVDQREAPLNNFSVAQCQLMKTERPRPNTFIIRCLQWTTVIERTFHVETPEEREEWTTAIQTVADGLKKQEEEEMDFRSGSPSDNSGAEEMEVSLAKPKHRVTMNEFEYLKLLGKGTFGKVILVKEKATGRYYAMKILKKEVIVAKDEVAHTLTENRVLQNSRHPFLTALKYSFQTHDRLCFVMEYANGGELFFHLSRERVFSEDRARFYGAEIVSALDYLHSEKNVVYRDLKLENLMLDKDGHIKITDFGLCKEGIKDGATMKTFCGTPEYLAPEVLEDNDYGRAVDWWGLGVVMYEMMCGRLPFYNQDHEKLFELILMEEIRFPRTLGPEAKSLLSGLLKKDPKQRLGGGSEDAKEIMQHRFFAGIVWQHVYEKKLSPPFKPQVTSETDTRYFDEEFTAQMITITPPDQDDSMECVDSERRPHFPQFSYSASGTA

Row | Compound | Activity
1 | NC(=O)C1CCCN1CCCN(C(=O)c1cccs1)c1nc(-c2cc3ccccc3o2)cs1 (stereo not shown) [1-(3-(N-(4-(benzofuran-2-yl)thiazol-2-yl)thiophene-2-carboxamido)propyl)pyrrolidine-2-carboxamide] | AKT1
2 | COC(=O)CNC(=O)CCCN(C(=O)c1cccs1)c1nc(-c2cc3ccccc3o2)cs1 [methyl 2-(4-(N-(4-(benzofuran-2-yl)thiazol-2-yl)thiophene-2-carboxamido)butanamido)acetate] | AKT1
3 | O=C1CCCN1CCCN(C(=O)c1cccs1)c1nc(-c2cc3ccccc3o2)cs1 [N-(4-(benzofuran-2-yl)thiazol-2-yl)-N-(3-(2-oxopyrrolidin-1-yl)propyl)thiophene-2-carboxamide] | AKT1
4 | O=C(NCc1cccc(Cl)c1)c1csc(N(CCCN2CCOCC2)C(=O)c2cccs2)n1 [N-(3-chlorobenzyl)-2-(N-(3-morpholinopropyl)thiophene-2-carboxamido)thiazole-4-carboxamide] | AKT1
5 | O=C(c1cccs1)N(CCCN1CCOCC1)c1nc(-c2cc(-c3ccc(Cl)cc3)no2)cs1 [N-(4-(3-(4-chlorophenyl)isoxazol-5-yl)thiazol-2-yl)-N-(3-morpholinopropyl)thiophene-2-carboxamide] | AKT1
6 | CNC(=O)[C@H]1CCCN1CCCN(C(=O)c1cccs1)c1nc(-c2cc3ccccc3o2)cs1 [(R)-1-(3-(N-(4-(benzofuran-2-yl)thiazol-2-yl)thiophene-2-carboxamido)propyl)-N-methylpyrrolidine-2-carboxamide] | AKT1
7 | COc1cccc2cc(-c3csc(N(CCCN4CCOCC4)C(=O)c4cccs4)n3)oc12 [N-(4-(7-methoxybenzofuran-2-yl)thiazol-2-yl)-N-(3-morpholinopropyl)thiophene-2-carboxamide] | AKT1
8 | O=C(c1cccs1)N(CCCN1CCCCC1CN1CCCC1)c1nc(-c2cc3ccccc3o2)cs1 (stereo not shown) [N-(4-(benzofuran-2-yl)thiazol-2-yl)-N-(3-(2-(pyrrolidin-1-ylmethyl)piperidin-1-yl)propyl)thiophene-2-carboxamide] | AKT1
9 | O=C(CCCN(C(=O)c1cccs1)c1nc(-c2cc3ccccc3o2)cs1)N1CCCCC1 [N-(4-(benzofuran-2-yl)thiazol-2-yl)-N-(4-oxo-4-(piperidin-1-yl)butyl)thiophene-2-carboxamide] | AKT1
10 | O=C(c1ccco1)N(CCCN1CCCCCC1)c1nc(-c2ccccc2)cs1 [N-(3-(azepan-1-yl)propyl)-N-(4-phenylthiazol-2-yl)furan-2-carboxamide] | AKT1
11 | COC(=O)c1ccc(-c2csc(N(CCCN3CCOCC3)C(=O)c3cccs3)n2)cc1 [methyl 4-(2-(N-(3-morpholinopropyl)thiophene-2-carboxamido)thiazol-4-yl)benzoate] | AKT1
12 | CN1CCN(CCCN(C(=O)c2cccs2)c2nc(-c3cc4ccccc4o3)cs2)CC1 [N-(4-(benzofuran-2-yl)thiazol-2-yl)-N-(3-(4-methylpiperazin-1-yl)propyl)thiophene-2-carboxamide] | AKT1
13 | CN(CCC#N)C(=O)CCN(C(=O)c1cccs1)c1nc(-c2cc3ccccc3o2)cs1 [N-(4-(benzofuran-2-yl)thiazol-2-yl)-N-(3-((2-cyanoethyl)(methyl)amino)-3-oxopropyl)thiophene-2-carboxamide] | AKT1
14 | O=C(c1cccs1)N(CCCN1CCCCC1CCO)c1nc(-c2cc3ccccc3o2)cs1 (stereo not shown) [N-(4-(benzofuran-2-yl)thiazol-2-yl)-N-(3-(2-(2-hydroxyethyl)piperidin-1-yl)propyl)thiophene-2-carboxamide] | AKT1
15 | COc1ccc(OC)c(-c2csc(N(CCCN3CCN(C)CC3)C(=O)c3cccs3)n2)c1 [N-(4-(2,5-dimethoxyphenyl)thiazol-2-yl)-N-(3-(4-methylpiperazin-1-yl)propyl)thiophene-2-carboxamide] | AKT1
16 | COc1ccc(-c2csc(N(CCCN3CCOCC3)C(=O)c3cccs3)n2)cn1 [N-(4-(6-methoxypyridin-3-yl)thiazol-2-yl)-N-(3-morpholinopropyl)thiophene-2-carboxamide] | AKT1
